The values below come from US4150029A, “3-Aryl 2-oxazolidinones, their process of preparation and their therapeutical application” (Delalande S.A., priority 1976, dated 1979).

The nature of one series: Acute toxicity in mice. The following applies: mouse, in vivo, po; for LD50: acute toxicity, read-out: 50 DL.
The subject of series [1] is generalised trembling caused by an intraperitoneal injection of dl-5-hydroxytryptophane. Kind of series: Test A: potentiation of generalised trembling caused by dl-5-hydroxytryptophane in the mouse. The series is classed as in vivo. The following applies: po, read-out: Test A 50 DE. The procedure:
Potentiation in a mouse of generalised trembling caused by an intraperitoneal injection (200 mg/kg) of dl-5-hydroxytryptophane, according to the mode of operation described by GOURET C. and RAYNAUD G. in the J. Pharmacol. (PARIS), (1974), 5, 231.

In series [2] the test system is ptosis observed one hour after an intravenous injection of reserpine. Kind of series: Test B: antagonism of reserpine-induced ptosis in the mouse. The following applies: po, 1 h, p.o., reserpine 2 mg/kg i.v., read-out: Test B 50 DE. It is filed as in vivo. The method, then:
Antagonism in relation to ptosis observed one hour after an intravenous injection (2 mg/kg) of reserpine was given to a mouse, according to the mode of operation described by GOURET C. and THOMAS J. in J. Pharmacol. (PARIS), (1973), 4, 401.

In series [3] the test system is pontogeniculo-occipital points (P.G.O.) caused by reserpine. Description: Test C: diminution in density of reserpine-induced pontogeniculo-occipital (P.G.O.) points in the cat. The series is classed as in vivo. The following applies: Felis catus, po, reserpine 0.5 mg/kg, read-out: Test C 50 DE. The procedure:
Diminution in the density of pontogeniculo-occipital points (P.G.O.) caused by injecting a cat with 0.5 mg/kg of reserpine, according to the mode of operation described by COSTON A. and GOURET C. in J. Pharmacol. (PARIS), (1976), 7, 409.

Setting [4] is: mouse, p.o., dl-5-hydroxytryptophane 200 mg/kg i.p.

Where two headings read alike, the source gives them in different places.

Take `Cc1cccc(N2CC(CO)OC2=O)c1` (centres unmarked) [TOLOXATONE, reference compound]: the LD50 in “Acute toxicity in mice” worked out at 1850 mg/kg. Also, the ED50 in series [1] (setting [4]) stood at 60 mg/kg; in series [2] it was 50 mg/kg; in series [3] it was 28 mg/kg.

Take `O=C1OC(CO)CN1c1ccc([N+](=O)[O-])cc1` (centres unmarked) [compound 740564]: the LD50 in “Acute toxicity in mice” is more than 1000 mg/kg. For the same compound, the ED50 in series [1] (setting [4]) was found to be 38 mg/kg; in series [2], 42 mg/kg; in series [3] it was 16 mg/kg.

For `CNC(=O)OCC1CN(c2cccc(C(F)(F)F)c2)C(=O)O1` (centres unmarked) [compound 740704], the mortality (in general, the share of the test organisms that died) in “Acute toxicity in mice” (dose administered 2000 mg/kg/p.o.) came to 0%. For the same compound, the ED50 in series [1] (Mus musculus) stood at 42 mg/kg; in series [2], 12 mg/kg; in series [3], 52 mg/kg.

As for `CC(C)NC(=O)OCC1CN(c2cccc(C(F)(F)F)c2)C(=O)O1` (centres unmarked) [compound 740711], the mortality in “Acute toxicity in mice” (dose administered 1000 mg/kg/p.o.) was found to be 0%. The ED50 stood at 19 mg/kg in series [1] (setting [4]) and 26 mg/kg in series [2].

Turning to `CCOc1ccc(N2CC(CO)OC2=O)cc1` (centres unmarked) [compound 760037], the LD50 in “Acute toxicity in mice” is more than 2000 mg/kg. The ED50 was determined as 16 mg/kg in series [1] (setting [4]), 40 mg/kg in series [2] and 5.4 mg/kg in series [3].

In the case of `CSc1ccc(N2CC(CO)OC2=O)cc1` (centres unmarked) [compound 760082], in “Acute toxicity in mice”, the LD50 was more than 2000 mg/kg. The ED50 in series [1] (setting [4]) amounted to 22 mg/kg; in series [2], 18 mg/kg; in series [3], 8.4 mg/kg.

As to `O=C1OC(CO)CN1c1ccc(OCc2ccccc2)cc1` (centres unmarked) [compound 760167, 5-hydroxymethyl 3-p-benzyloxyphenyl 2-oxazolidinone], the LD50 in the series “Acute toxicity in mice” is more than 2000 mg/kg. Further, the ED50 is 9.5 mg/kg in series [1] (setting [4]), 3.3 mg/kg in series [2] and 15.2 mg/kg in series [3].

For the compound `N#Cc1ccc(N2CC(CO)OC2=O)cc1` (centres unmarked) [compound 760271], the LD50 in “Acute toxicity in mice” was 1050 mg/kg. Moreover, the ED50 in series [1] (setting [4]) was determined as 20 mg/kg; in series [2], 11 mg/kg; in series [3], 11 mg/kg.

Take `CCCCOc1ccc(N2CC(CO)OC2=O)cc1` (centres unmarked) [compound 760304]: the LD50 in the series “Acute toxicity in mice” was more than 2000 mg/kg. Moreover, the ED50 in series [1] (setting [4]) worked out at 5 mg/kg; in series [2] it was 5 mg/kg; in series [3], 6.1 mg/kg.

`CC(=O)COc1ccc(N2CC(CO)OC2=O)cc1` (centres unmarked) [compound 760652]: the ED50 stood at 7.1 mg/kg in series [1] (setting [4]), 2.8 mg/kg in series [2] and 13 mg/kg in series [3].

Turning to `C#CCOc1ccc(N2CC(COC(=O)NC)OC2=O)cc1` (centres unmarked) [compound 760658], the ED50 was more than 12.5 mg/kg in series [1] (Mus musculus), 27 mg/kg in series [2] and 13.9 mg/kg in series [3].

Consider `CNC(=O)OCC1CN(c2ccc(OCC#N)cc2)C(=O)O1` (centres unmarked) [compound 760660, 5-N-methylcarbamoyloxymethyl 3-p-cyanomethyloxyphenyl 2-oxazolidinone], for which the ED50 was more than 12.5 mg/kg in series [1] (Mus musculus), 31 mg/kg in series [2] and 12.3 mg/kg in series [3].

Regarding `CCCCOc1ccc(N2CC(COC(=O)NC)OC2=O)cc1` (centres unmarked) [compound 760662], the ED50 turned out to be 48 mg/kg in series [1] (Mus musculus), 17.5 mg/kg in series [2] and 23 mg/kg in series [3].

As to `CC(=O)c1ccc(N2CC(CO)OC2=O)cc1` (centres unmarked) [compound 760670], the ED50 was 21 mg/kg in series [1] (setting [4]), 10 mg/kg in series [2] and 14 mg/kg in series [3].

As to `CNC(=O)OCC1CN(c2ccc(OCc3ccc([N+](=O)[O-])cc3)cc2)C(=O)O1` (centres unmarked) [compound 760676], the results for the ED50 in series [1] (Mus musculus), in series [2] and in series [3] were more than 12.5 mg/kg, 6.25 mg/kg and 22 mg/kg, respectively.

As for `CNC(=O)OCC1CN(c2ccc(OCC(C)C)cc2)C(=O)O1` (centres unmarked) [compound 760712], the ED50 in series [1] (Mus musculus) was 48 mg/kg; in series [2], 25 mg/kg; in series [3], 35 mg/kg.

For the compound `CNC(=O)OCC1CN(c2ccc(OCc3ccc(F)cc3)cc2)C(=O)O1` (centres unmarked) [compound 760717], the ED50 in series [1] (Mus musculus) is more than 12.5 mg/kg; in series [2], 12.5 mg/kg; in series [3], more than 50 mg/kg.

As to `CC(C)NC(=O)OCC1CN(c2ccc(OCc3ccccc3)cc2)C(=O)O1` (centres unmarked) [compound 760723], the ED50 was more than 50 mg/kg in series [1] (setting [4]), 17.5 mg/kg in series [2] and more than 50 mg/kg in series [3].

With `CNC(=O)OCC1CN(c2ccc(OCc3cccc(Cl)c3)cc2)C(=O)O1` (centres unmarked) [compound 760729], the ED50 in series [1] (Mus musculus) was more than 12.5 mg/kg; in series [2] it was 23 mg/kg; in series [3] it was 50 mg/kg.

As to `CNC(=O)OCC1CN(c2ccc(C(C)=O)cc2)C(=O)O1` (centres unmarked) [compound 760731], the values for the ED50 in series [1] (Mus musculus), in series [2] and in series [3] were more than 25 mg/kg, 15 mg/kg and 17.5 mg/kg, respectively.

In the case of `CNC(=O)OCC1CN(c2ccc(SC)cc2)C(=O)O1` (centres unmarked) [compound 760786], the ED50 in series [1] (Mus musculus) was more than 50 mg/kg; in series [2], 40 mg/kg; in series [3], 25.5 mg/kg.

`C/C=C/COc1ccc(N2CC(CO)OC2=O)cc1` (centres unmarked) [compound 760827]: the results for the ED50 in series [1] (setting [4]), in series [2] and in series [3] were 15 mg/kg, 10 mg/kg and 5.2 mg/kg, respectively.

Consider `CC#CCOc1ccc(N2CC(CO)OC2=O)cc1` (centres unmarked) [compound 760877], for which the ED50 in series [1] (setting [4]) is 25 mg/kg; in series [2] it was 25 mg/kg; in series [3], 5.6 mg/kg.

As for `N#Cc1ccc(COc2ccc(N3CC(CO)OC3=O)cc2)cc1` (centres unmarked) [compound 760881], the ED50 was found to be 12.5 mg/kg in series [1] (setting [4]), 5 mg/kg in series [2] and 29 mg/kg in series [3].
